Consider 1 substance from patent US20180207249A1, “METHOD AND VACCINE COMPRISING COPOLYMER 1 FOR TREATMENT OF PSYCHIATRIC DISORDERS” (YEDA RESEARCH AND DEVELOPMENT CO. LTD., priority 2003, published 2018).

Test [1] has as its system Cop-1-reactive T cells. Kind of test: ELISA of BDNF secreted by Cop-1-reactive T cells. The following applies: 48 h stimulation with antigen. The test is classed as cell-based, Lewis rats. As for the experimental part: (iv) T-cell lines. Ten days after Cop-1 immunization, T-cell lines were generated from draining lymph node cells obtained from Lewis rats immunized with Cop-1 emulsified in CFA. The lymph nodes were surgically removed, dissociated, washed, and then activated with the antigen (10 μg/ml) in stimulation medium as previously reported (Kipnis et al., 2000). The T-cells lines were expanded by repeated stimulation and propagation.
(v) Enzyme-linked immunosorbent assay. T cell-reactive Cop-1 cells were grown for 1 week in a propagation medium, then washed with PBS and re-suspended in stimulation medium. The cultured T cells (0.5×10^6 cells/mL) were then incubated, in the presence of irradiated thymocytes (10^7 cells/mL), with concanavalin A (Con A; 1.25 μg/mL), myelin basic protein (MRP; 10 μg/ml), Cop-1 (10 μg/mL), ovalbumin (OVA; 10 μg/mL), or no antigen, in stimulation medium. After 48 h the cells were centrifaged and their supernatants were collected and sampled. Concentrations of brain-derived neurotrophic factor (BDNF) in the samples were determined with a sensitive sandwich ELISA. In brief 96-well flat-bottomed plates were coated with a chicken anti-human BDNF antibody (Promega, Madison, Wis.) in 0.025 M NaHCO3 and 0.025 M Na2CO3 (pH 8.2). Recombinant human BDNF (used as a standard; Research Diagnostics, Flanders, N.J.) was used in serial dilutions in blocking solution containing 3% bovine serum albumin, 0.05% polyoxyethylene-sorbitan monolaurate (Tween-20), and 1% fetal calf serum in PBS (pH 8.2). Bound BDNF was detected by incubating the plates with a mouse anti-human BDNF antibody (Research Diagnostics) and then with peroxidase-conjugated goat anti-mouse IgG (Jackson ImmunoResearch, West Grove, Pa.) in blocking solution. The plates were developed using a 3,3′,5,5′-tetramethylbenzidine liquid substrate system (Sigma-Aldrich). The reaction was stopped by adding 1M H3PO4, and the optical density was determined at 450 nm. Results for each experiment were calculated as the amount of secreted BDNF per 1 mL of sample, after subtraction of background levels of the irradiated thymocytes incubated with the stimulation medium.
Cop-1-reactive T cells were cultured for 48 h with Cop-1, MBP, ovalbumin, or concanavalin A in stimulation medium. T cell supernatants were collected and subjected to sandwich ELISA. […] Values are mean values (pg/ml) +/− SE (from three independent experiments) of the amounts of BDNF secreted by Cop-1-specific T cells in response to stimulation by various antigens.

Test [2] relates to Treg (CD4+CD25+) co-cultured with effector T cells (Teff). Kind of test: Inhibition assay (co-culturing of Teff with Treg), [3H]-thymidine incorporation. The test is classed as cell-based, mice. The following applies: activated Treg incubated 2 h with Cop-1 20 μg/ml, Cop-1 20 μg/ml also added to co-culture. As for the experimental part: (xviii) Purification of CB4^+CB25^+ and CD4^+CB25^− T cells. Lymph nodes were harvested and mashed. T cells were enriched by negative selection and purified on CD3-cell columns (MTCC-25; R&D Systems). The enriched T cells were incubated with and-CD8 raicrobeads (Miltenyi Biotec, Bergiseh Gladbach, Germany), and negatively selected CD4^+ T cells were incubated with PE-conjugated anti-CD25 (30 μg/10^8 cells) in PBS/2% fetal calf serum. They were then washed and incubated with anti-PE microbeads (Miltenyi Biotec) and subjected to magnetic separation with AutoMACS (Miltenyi Biotec). The retained cells were eluted from the column as purified CD4^+CD25^+ cells. The negative fraction consisted of CD4^+CD25^− T cells. Cell purity was chceked by FACSort (Becton-Dickinson) and typically ranged from 88% to 95%. Purified cells were cultured in 24-well plates (1 ml).
(xix) Activation of CB4^+CD25^+ regulatory T cells. […]
(xx) Inhibition assay (co-culturing of Teff with Treg). […] After the cells were harvested, their analyzed [^3H]-thymidine content was analyzed by the use of a […].
Naïve Teff cells (50×10^3 cells/well) were co-cultured with decreasing numbers ([…] cells/well) of Treg cells that have been activated for 24 h with anti-CD3 and mrIL 2. […] Recorded values are from one representative experiment out of three and are expressed as means±SD of 4 replicates.

Turning to Copolymer 1 [Cop-1], the “Secretion of BDNF by Cop-1-reactive T cells compared with unstimulated T cells” value in test [1] is recorded as “significantly increased”. The “BDNF secreted by Cop-1-reactive T cells (mean)” value in test [1] (mean of three independent experiments, no antigen 400) came to 1220 pg/mL. In test [2], the “Treg-mediated suppression of Teff proliferation” value is reported as “alleviated the suppression of Teff compared to the control”.
